Data taken from patent US12180146B2, “Antihypertensive polyol compound and derivative thereof” (TAO PHARMACEUTICAL (SUZHOU) CO., LTD, priority 2020, dated 2024).

Key:
[1] = tested on: monocrotaline-induced pulmonary hypertension model rats (MCT-PAH); assay: Monocrotaline-induced pulmonary hypertension model rats, aerosol inhalation treatment; format: in vivo, SD rats; settings: inh, 28 days
Procedure: A pulmonary hypertension animal model of SD rats was established by subcutaneous injection of monocrotaline (MCT). The compound 1 was administered by aerosol inhalation for treatment. The pulmonary artery hemodynamics and right heart hypertrophy index RVHI of rats were tested to determine whether compound 1 administered by aerosol inhalation has effects of improving monocrotaline-induced pulmonary hypertension.
(§1) SD rats (purchased from Shanghai Xipuer-Bikai Experimental Animal Co., Ltd.), male, weighing 180-200 g, were bred in an artificially controlled animal room with each 12 hours of light and darkness at a temperature of 20-25° C. and relative humidity of 50-60%, and allowed ad libitum to food and water. The rats were randomly divided into groups according to the experimental requirements, and kept separately in cages, with 3 to 4 rats per cage. All relevant operations of animal experiments are in compliance with the provisions of “Guidelines for the Management and Use of Laboratory Animals” of China.
In the second experiment, the rats were divided into 5 groups, namely the control group, model group, positive control Tyvaso (1.62 μg/kg) group, compound 1 (10 mg/kg) group and compound 1 (30 mg/kg) group. On the first day of the experiment, normal saline was injected subcutaneously into the back of the neck of the rats in the blank control group, and monocrotaline (Chengdu Purifa Biotechnology Co., Ltd.) solution was injected in the other groups at a dosage of 60 mg/kg. Compound 1 and Tyvaso were administered by aerosol inhalation, that is, the compound was firstly dissolved in physiological saline, and then the solution was prepared into an aerosol with a nebulizer to be inhaled into the mouth and nose of rats. The rats in the control group and the model group only inhaled an aerosol made of physiological saline. The rats were continuously administered for 28 days, and the concentration in the parentheses of the group name represents the administered concentration of the compound. Specific groupings can be found in Table 9. After the administration, the pulmonary vascular hemodynamics and RVHI were determined in the same way as the experiment method in Example 1.

[2] = tested on: monocrotaline-induced pulmonary hypertension model rats (MCT-PAH); assay: Monocrotaline-induced pulmonary hypertension model rats, oral (gavage) treatment for 21 days; format: in vivo, SD rats; settings: 100 mg/kg
Source text: Monocrotaline (MCT) was subcutaneously injected to establish an animal model of pulmonary hypertension in SD rats. At the same time, compound 1 was given by gavage for treatment. The pulmonary artery hemodynamics and right heart hypertrophy index RVHI of the rates were detected to determine whether the oral administration of compound 1 has effects of improving Monocrotaline induces pulmonary hypertension.
as §1
During the experiment, SD rats were randomly divided into 4 groups: blank control group, pulmonary hypertension model group, Selexipag (1 mg/kg) treatment group and compound 1 (100 mg/kg) group with 6 rats in each group, and the concentration in brackets represents the administration concentration of the compound, in which Selexipag is a new oral long-acting prostacyclin receptor agonist discovered and synthesized by Japan New Drug Co., Ltd. On the first day of the experiment, normal saline was injected subcutaneously into the back of neck of rats in the blank control group, and monocrotaline (Chengdu Purifa Biotechnology Co., Ltd.) solution was injected in the rats in other groups at a dosage of 60 mg/kg. Both the positive drug, Selexipag and Compound 1 were administered by gavage. Selexipag and […] were dissolved in 0.5% CMC-Na solution. The rats were continuously administered for 21 days with a volume of […]. The rats in the control and model groups were given the corresponding volume of CMC-Na solution by gavage. Specific groupings can be found in Table 7.
After the administration, the pulmonary vascular hemodynamics and RVHI was determined according to the same experiment method as that in Example 1.

## CCc1cccc(C(O)CO)c1 (stereo not drawn) [Compound 1, 1-(3-ethylphenyl)-1,2-ethylene glycol]
[1]; 10 mg/kg
  2 × MT/ED: 0.335 ± 0.034
  RVHI: 0.235 ± 0.026
  RVSP: 35.92 ± 3.74 mmHg
  mPAP: 11.46 ± 2.48 mmHg
[1]; 10 mg/kg, listed as compound 1, 10 mg/kg
  RVHI: 0.235±0.026
[1]; 30 mg/kg
  2 × MT/ED: 0.319 ± 0.035
  RVHI: 0.204 ± 0.035
  RVSP: 31.18 ± 4.62 mmHg
  mPAP: 8.06 ± 2.59 mmHg
[1]; 30 mg/kg, listed as compound 1, 30 mg/kg
  RVHI: 0.204±0.035
[2]
  2 × MT/ED: 0.27 ± 0.062
  RVHI: 0.31 ± 0.059
  RVSP: 39.72 ± 3.46 mmHg
  mPAP: 9.21 ± 2.69 mmHg
[2]; listed as compound 1, 100 mg/kg
  RVHI: 0.31±0.059
